From patent US20090068290A1, “BIFEPRUNOX DOSES FOR TREATING SCHIZOPHRENIA” (priority 2006, published 2009)

Key:
Type in all cases: in vivo, human
[1] = tested on: adult subjects with schizophrenia; assay: BPRS psychosis cluster score, Clinical Study Three; settings: LOCF; for Change from Baseline in BPRS Psychosis Cluster Score, Mean (SD) / Change from Baseline in BPRS Psychosis Cluster Score, Median: Olanzapine 15 mg, ITT population
Source text: SECONDARY OBJECTIVES To assess the efficacy of bifeprunox in treating schizophrenia using the Positive Symptom sub-scale score of the PANSS, the Negative Symptom sub-scale score of the PANSS, the General Psychopathology sub-scale of the PANSS, Brief Psychiatric Rating Scale (BPRS) total score derived from the PANSS, BPRS psychosis score derived from the PANSS, the Clinical Global Impression Severity of Illness score (CGI-S), the Clinical Global Impression Improvement score (CGI-I), CGI-I responder rate, PANSS responder rate based on the PANSS total score, Calgary Depression Scale for Schizophrenia (CDSS), and Subject Satisfaction rating.
There were four treatment arms in this study, approximately 144 subjects per arm. […] After completing the Single-Blind Placebo Lead-in Period of at least three days, bifeprunox-treated subjects were titrated from 0.25 mg up to 20 mg/day or 30 mg/day according to a standardized titration scheme over a seven- or eight-day period, respectively. When the assigned dose was reached, subjects were maintained at that dose for the remainder of the six week treatment period. […] Subjects were hospitalized (if not already inpatients) after eligibility for study entry was verified, starting from the Screening Visit until at least 10 days after Baseline. Subjects could be hospitalized longer than 10 days if considered medically necessary by the Investigator. Rating scale assessments for efficacy and abnormal movement disorders were done weekly except for Week 5. […] Subject satisfaction with study medication was assessed at Week 6.

[2] = tested on: adult subjects with schizophrenia; assay: CGI responder rate, Clinical Study One; settings: 6 mg
Method: (§1) There were five treatment groups in this study. […] Study medication was administered once daily. After Baseline measurements were performed, the titration phase was begun. Bifeprunox treated subjects were titrated up to 5 mg, 10 mg or 20 mg according to a standardized titration schedule (Day 1: 0.125 mg, Day 2: 0.25 mg, Day 3: 0.5 mg, Day 4: 1.0 mg, Day 5: 2.0 mg, Day 6: 5.0 mg, Day 7: 10.0 mg, Day 8: 20 mg). When the assigned dose was reached, subjects were maintained at that dose for the remainder of the six-week treatment period.
CLINICAL STUDY ONE: A CGI responder is defined as a subject who is categorized as “very much improved” or “much improved” on the CGI Improvement scale.

[3] = tested on: adult subjects with schizophrenia; assay: CGI Severity of Illness score, Clinical Study One; settings: Risperidone 6 mg, ITT population
Method: as §1
The change in the Positive and Negative Symptom Scale (PANSS) total score, from baseline to endpoint, was the primary outcome measure. Secondary efficacy measures included: PANSS positive, PANSS negative, PANSS general psychopathology (GPP) score, PANSS-derived Brief Psychiatric Rating Scale (BPRS) score, Clinical Global Impressions-Severity of Illness (CGI-S), CGI-Improvement (CGI-I) scores, and responder rates. Safety and tolerability evaluations included extrapyramidal symptoms (EPS), weight gain, lipid profile, and serum prolactin.

[4] = tested on: adult subjects with schizophrenia; assay: CGI Severity of Illness score, Clinical Study Two; settings: LOCF; for Change from Baseline in CGI Severity of Illness Score, Mean (SD) / Change from Baseline in CGI Severity of Illness Score, Median: Risperidone 6 mg, ITT population
Method: (§2) Rating scale assessments were performed weekly, except for week 5, to measure the change from baseline to endpoint of the PANSS total score. Other assessments included: PANSS positive symptom subscale score, PANSS negative symptom subscale score, PANSS general pschopathology subscale score, BPRS total score, BPRS psychosis score, the CGI-S score, the CGI-I score, responder rates based on the PANSS total score, and the Calgary Depression Scale for Schizophrenia (CDSS). […]
(§3) Subjects who completed this study had the option to continue in the long-term. […] Risperidone-treated subjects were titrated from 2 mg to 6 mg daily over a three-day period and were subsequently maintained at 6 mg/day for the remainder of the treatment period. […] Blood samples were also obtained at Screening/Baseline, Week 3, and Week 6 for clinical laboratory assessments.

[5] = Body weight, Clinical Study Two; settings: Risperidone 6 mg
[6] = tested on: adult subjects with schizophrenia; assay: BPRS psychosis cluster score, Clinical Study Two; settings: LOCF; for Change from Baseline in BPRS Psychosis Cluster Score, Mean (SD) / Change from Baseline in BPRS Psychosis Cluster Score, Median: Risperidone 6 mg, ITT population
Method: as §2, §3

Q: For Cc1cc2c(s1)Nc1ccccc1N=C2N1CCN(C)CC1 [Olanzapine, olanzapine, reference compound], which “Change from Baseline in BPRS Psychosis Cluster Score, Mean (SD)” value ([1]; Week 1) is on record?
A: −1.9 (2.3)

Q: What about the “Change from Baseline in BPRS Psychosis Cluster Score, Median” value ([1]; Week 1) of the same compound?
A: −2

Q: And the “Change from Baseline in BPRS Psychosis Cluster Score, Mean (SD)” value ([1]; Week 2)?
A: −3.1 (2.6)

Q: What about the “Change from Baseline in BPRS Psychosis Cluster Score, Median” value ([1]; Week 2) of the same compound?
A: −3

Q: What about the “Change from Baseline in BPRS Psychosis Cluster Score, Mean (SD)” value ([1]; Week 3) of the same compound?
A: −4.0 (3.2)

Q: And the “Change from Baseline in BPRS Psychosis Cluster Score, Median” value ([1]; Week 3)?
A: −4

Q: And the “Change from Baseline in BPRS Psychosis Cluster Score, Mean (SD)” value ([1]; Week 4)?
A: −4.4 (3.5)

Q: And the “Change from Baseline in BPRS Psychosis Cluster Score, Median” value ([1]; Week 4)?
A: −5

Q: What about the “Change from Baseline in BPRS Psychosis Cluster Score, Mean (SD)” value ([1]; Week 6/Endpoint) of the same compound?
A: −4.9 (4.0)

Q: And the “Change from Baseline in BPRS Psychosis Cluster Score, Median” value ([1]; Week 6/Endpoint)?
A: −5

Q: What about the “mean change (SD) from Baseline to Endpoint in BPRS psychosis cluster score” value ([1]; olanzapine 15 mg, ITT) of the same compound?
A: −4.9 (4.0)

Q: With Cc1nc2n(c(=O)c1CCN1CCC(c3noc4cc(F)ccc34)CC1)CCCC2 [Risperidone, risperidone, reference compound] as the compound, how does the “CGI Responder at Endpoint (LOCF), %” value [2] read?
A: 36%

Q: And the “Change from Baseline in CGI Severity of Illness Score, Mean (S.D.)” value (“Change from Baseline in CGI Severity … (S.D.)” below) ([3]; Endpoint LOCF)?
A: −0.76 (0.93)

Q: And the “Change from Baseline in CGI Severity of Illness Score, Median” value (shortened to “Change … of Illness Score, Median”) ([3]; Endpoint LOCF)?
A: 0.0

Q: What about the “Change from Baseline in CGI Severity … (S.D.)” value ([3]; Week 1, LOCF) of the same compound?
A: −0.37 (0.68)

Q: What about the “Change … of Illness Score, Median” value ([3]; Week 1, LOCF) of the same compound?
A: 0.0

Q: And the “Change from Baseline in CGI Severity … (S.D.)” value ([3]; Week 2, LOCF)?
A: −0.60 (0.83)

Q: And the “Change … of Illness Score, Median” value ([3]; Week 2, LOCF)?
A: 0.0

Q: And the “Change from Baseline in CGI Severity … (S.D.)” value ([3]; Week 3, LOCF)?
A: −0.70 (0.81)

Q: And the “Change … of Illness Score, Median” value ([3]; Week 3, LOCF)?
A: 0.0

Q: And the “Change from Baseline in CGI Severity … (S.D.)” value ([3]; Week 4, LOCF)?
A: −0.69 (0.85)

Q: What about the “Change … of Illness Score, Median” value ([3]; Week 4, LOCF) of the same compound?
A: 0.0

Q: What about the “Change from Baseline in CGI Severity of Illness Score, Mean (SD)” value (“Change from Baseline in CGI Severity … (SD)” below) ([4]; Week 1) of the same compound?
A: −0.39 (0.63)

Q: And the “Change … of Illness Score, Median” value ([4]; Week 1)?
A: 0.0

Q: What about the “Change from Baseline in CGI Severity … (SD)” value ([4]; Week 2) of the same compound?
A: −0.73 (0.95)

Q: And the “Change … of Illness Score, Median” value ([4]; Week 2)?
A: −1.0

Q: And the “Change from Baseline in CGI Severity … (SD)” value ([4]; Week 3)?
A: −0.94 (1.00)

Q: And the “Change … of Illness Score, Median” value ([4]; Week 3)?
A: −1.0

Q: What about the “Change from Baseline in CGI Severity … (SD)” value ([4]; Week 4) of the same compound?
A: −1.02 (1.09)

Q: And the “Change … of Illness Score, Median” value ([4]; Week 4)?
A: −1.0

Q: What about the “Change from Baseline in CGI Severity … (SD)” value ([4]; Week 6/Endpoint) of the same compound?
A: −1.06 (1.20)

Q: And the “Change … of Illness Score, Median” value ([4]; Week 6/Endpoint)?
A: −1.0

Q: What about the “mean change (SD) from Baseline to Endpoint in CGI severity of illness score” value ([4]; risperidone 6 mg, ITT) of the same compound?
A: −1.06 (1.20)

Q: And the “Weight, Baseline Mean of subjects with Endpoint change” value [5]?
A: 174.5 lbs

Q: And the “Weight, Baseline Mean of subjects with Week 6 change” value [5]?
A: 166.6 lbs

Q: What about the “Weight, Baseline, Max” value [5] of the same compound?
A: 404 lbs

Q: What about the “Weight, Baseline, Mean (SD)” value [5] of the same compound?
A: 174.3 (58.5) lbs

Q: And the “Weight, Baseline, Median” value [5]?
A: 170 lbs

Q: And the “Weight, Baseline, Min” value [5]?
A: 82 lbs

Q: What about the “Weight, Change from Baseline at Endpoint, Max” value [5] of the same compound?
A: 33 lbs

Q: And the “Weight, Change from Baseline at Endpoint, Mean (SD)” value [5]?
A: 3.2 (7.4) lbs

Q: What about the “Weight, Change from Baseline at Endpoint, Median” value [5] of the same compound?
A: 2 lbs

Q: What about the “Weight, Change from Baseline at Endpoint, Min” value [5] of the same compound?
A: −20 lbs

Q: And the “Weight, Change from Baseline at Week 6, Max” value [5]?
A: 33 lbs

Q: What about the “Weight, Change from Baseline at Week 6, Mean (SD)” value [5] of the same compound?
A: 4.1 (7.6) lbs

Q: And the “Weight, Change from Baseline at Week 6, Median” value [5]?
A: 2 lbs

Q: What about the “Weight, Change from Baseline at Week 6, Min” value [5] of the same compound?
A: −12 lbs

Q: What about the “mean weight change at Endpoint” value [5] of the same compound?
A: 3.2 lbs

Q: And the “Change from Baseline in BPRS Psychosis Cluster Score, Mean (SD)” value ([6]; Week 1)?
A: −2.3 (2.4)

Q: What about the “Change from Baseline in BPRS Psychosis Cluster Score, Median” value ([6]; Week 1) of the same compound?
A: −2

Q: What about the “Change from Baseline in BPRS Psychosis Cluster Score, Mean (SD)” value ([6]; Week 2) of the same compound?
A: −3.6 (3.0)

Q: And the “Change from Baseline in BPRS Psychosis Cluster Score, Median” value ([6]; Week 2)?
A: −4

Q: What about the “Change from Baseline in BPRS Psychosis Cluster Score, Mean (SD)” value ([6]; Week 3) of the same compound?
A: −4.3 (3.4)

Q: What about the “Change from Baseline in BPRS Psychosis Cluster Score, Median” value ([6]; Week 3) of the same compound?
A: −4

Q: And the “Change from Baseline in BPRS Psychosis Cluster Score, Mean (SD)” value ([6]; Week 4)?
A: −4.7 (3.6)

Q: What about the “Change from Baseline in BPRS Psychosis Cluster Score, Median” value ([6]; Week 4) of the same compound?
A: −5

Q: And the “Change from Baseline in BPRS Psychosis Cluster Score, Mean (SD)” value ([6]; Week 6/Endpoint)?
A: −4.9 (4.0)

Q: What about the “Change from Baseline in BPRS Psychosis Cluster Score, Median” value ([6]; Week 6/Endpoint) of the same compound?
A: −5

Q: And the “mean change (SD) from Baseline to Endpoint in BPRS psychosis cluster score” value ([6]; risperidone 6 mg, ITT)?
A: −4.9 (4.0)
